# Measured values taken from patent US10144947B2, “Method for detecting, identifying and enumerating micro-organisms in a porous support dry-impregnated with a dehydrated reaction medium” (BIOMÉRIEUX, priority 2014, dated 2018).
# Like-named read-outs stand apart in the source and are kept apart here.
# Key:
# E. coli ATCC 25922 [1] = experiment: MIC of imipenem for the strain used; type: cell-based; settings: Escherichia coli, ATCC25922, as stated in the conclusion
# [2] = test system: Pseudomonas aeruginosa ATCC 27853; experiment: Growth (colony count) on ChromID CPS3 with 1 mg/l imipenem, agar medium or impregnated porous support; type: cell-based; settings: for CFU/ml, ChromID CPS3 with 1 mg/l imipenem: starting concentration 10^3 CFU/ml; for CFU, ChromID CPS3 with 1 mg/l imipenem: starting concentration 10^5 CFU/ml
# Method: (§1) To produce the agar media, a liter of water is added to the test specimen of the dry medium, i.e. 38.3 g for ChromID CPS3. The dry medium is then dissolved with stirring, brought to the boil then sterilized by autoclaving. After cooling the agar medium to 55° C., the imipenem sterilized by filtration is added at a concentration of 1 mg/l. To carry out impregnation according to the present invention of the dry medium Chrom ID CPS3, a test specimen of the dry medium corresponding to the manufacture of one liter of medium is taken, i.e. 26 g, to which test specimen xanthan (20 g) and imipenem […] are added. All the constituents are then mixed together in a Turbula®. The porous supports are then impregnated by the culture media powder produced as described above and sterilized by gamma radiation between 10 and 17 kGy.
# [3] = test system: Pseudomonas aeruginosa ATCC 27853; experiment: MIC of imipenem for the strain used; type: cell-based; settings: ATCC27853, Pseudomonas aeruginosa ATCC 27853, as stated in the conclusion
# E. coli ATCC 25922 [4] = experiment: Growth (colony count) on ChromID CPS3 with 1 mg/l imipenem, agar medium or impregnated porous support; type: cell-based, Escherichia coli
# Method: as §1
# [5] = test system: Pseudomonas aeruginosa API 7509005; experiment: MIC of ciprofloxacin for the strain tested; type: cell-based; settings: P. aeruginosa API 7509005; listed as Ci
# [6] = test system: Pseudomonas aeruginosa API 9405063; experiment: MIC of ciprofloxacin for the strain tested; type: cell-based; settings: P. aeruginosa API 9405063; listed as Ci
# [7] = test system: Proteus mirabilis API 8803080; experiment: MIC of ciprofloxacin for the strain tested; type: cell-based; settings: listed as Ci
# [8] = test system: Pseudomonas aeruginosa API 9410075; experiment: MIC of ciprofloxacin for the strain tested; type: cell-based; settings: P. aeruginosa API 9410075; listed as Ci
# [9] = test system: Proteus mirabilis API 8803099; experiment: MIC of ciprofloxacin for the strain tested; type: cell-based
# [10] = test system: Proteus vulgaris API 8803017; experiment: MIC of ciprofloxacin for the strain tested; type: cell-based; settings: API8803017
# [11] = test system: Proteus mirabilis API 8803080; experiment: Growth on MH2 or ChromID CPS3 with 1.5 mg/l ciprofloxacin, agar medium or impregnated porous support; type: cell-based; set-up: key to growth on MH2 Agar medium + 1.5 mg/l Ci / growth on Impregnation of porous support with MH2 + 1.5 mg/l Ci / growth on ChromID CPS3 Agar medium + 1.5 mg/l Ci / growth on Impregnation of porous support with ChromID CPS3 + 1.5 mg/l Ci: ++: grow; −−: do not grow
# Method: (§2) To produce the agar media, a liter of water is added to the test specimen of the dry medium, i.e. 38.3 g for ChromID CPS3 and 41.57 g for the Muller Hinton 2 medium. The dry medium is then dissolved with magnetic stirring, brought to the boil then sterilized by autoclaving. […]. The whole thing is then mixed together in a Turbula®. The porous supports are then impregnated with the culture media powders as described above and sterilized by gamma radiation between 10 and 17 kGy.
# [12] = test system: Pseudomonas aeruginosa API 9405063; experiment: as above; type: cell-based; set-up: key to growth on MH2 Agar medium + 1.5 mg/l Ci / growth on Impregnation of porous support with MH2 + 1.5 mg/l Ci / growth on ChromID CPS3 Agar medium + 1.5 mg/l Ci / growth on Impregnation of porous support with ChromID CPS3 + 1.5 mg/l Ci: ++: grow; −−: do not grow
# Method: as §2
# [13] = test system: Pseudomonas aeruginosa API 9410075; experiment: as above; type: cell-based; set-up: key to growth on MH2 Agar medium + 1.5 mg/l Ci / growth on Impregnation of porous support with MH2 + 1.5 mg/l Ci / growth on ChromID CPS3 Agar medium + 1.5 mg/l Ci / growth on Impregnation of porous support with ChromID CPS3 + 1.5 mg/l Ci: ++: grow; −−: do not grow
# Method: as §2
# [14] = test system: Pseudomonas aeruginosa API 7509005; experiment: as above; type: cell-based; set-up: key to growth on MH2 Agar medium + 1.5 mg/l Ci / growth on Impregnation of porous support with MH2 + 1.5 mg/l Ci / growth on ChromID CPS3 Agar medium + 1.5 mg/l Ci / growth on Impregnation of porous support with ChromID CPS3 + 1.5 mg/l Ci: ++: grow; −−: do not grow
# Method: as §2
# [15] = test system: Proteus vulgaris API 8803017; experiment: as above; type: cell-based; set-up: key to growth on MH2 Agar medium + 1.5 mg/l Ci / growth on Impregnation of porous support with MH2 + 1.5 mg/l Ci / growth on ChromID CPS3 Agar medium + 1.5 mg/l Ci / growth on Impregnation of porous support with ChromID CPS3 + 1.5 mg/l Ci: ++: grow; −−: do not grow
# Method: as §2
# [16] = test system: Pseudomonas aeruginosa API 9405061; experiment: as above; type: cell-based; set-up: key to growth on MH2 Agar medium + 1.5 mg/l Ci / growth on Impregnation of porous support with MH2 + 1.5 mg/l Ci / growth on ChromID CPS3 Agar medium + 1.5 mg/l Ci / growth on Impregnation of porous support with ChromID CPS3 + 1.5 mg/l Ci: ++: grow; −−: do not grow
# Method: as §2
# [17] = test system: Proteus mirabilis API 9406037; experiment: as above; type: cell-based; set-up: key to growth on MH2 Agar medium + 1.5 mg/l Ci / growth on Impregnation of porous support with MH2 + 1.5 mg/l Ci / growth on ChromID CPS3 Agar medium + 1.5 mg/l Ci / growth on Impregnation of porous support with ChromID CPS3 + 1.5 mg/l Ci: ++: grow; −−: do not grow
# Method: as §2
# [18] = test system: Proteus mirabilis API 8803099; experiment: as above; type: cell-based; set-up: key to growth on MH2 Agar medium + 1.5 mg/l Ci / growth on Impregnation of porous support with MH2 + 1.5 mg/l Ci / growth on ChromID CPS3 Agar medium + 1.5 mg/l Ci / growth on Impregnation of porous support with ChromID CPS3 + 1.5 mg/l Ci: ++: grow; −−: do not grow
# Method: as §2
# [19] = test system: Proteus mirabilis API 9406037; experiment: MIC of ciprofloxacin for the strain tested; type: cell-based; settings: listed as Ci
# [20] = test system: Pseudomonas aeruginosa API 9405061; experiment: MIC of ciprofloxacin for the strain tested; type: cell-based; settings: P. aeruginosa API 9405061
# [21] = porous support according to the invention
# [22] = ChromID CPS3 agar medium, 1.5 mg/l ciprofloxacin
# [23] = MH2 agar medium, 1.5 mg/l ciprofloxacin
# [24] = MH2 and ChromID CPS3, agar and porous support, 1.5 mg/l ciprofloxacin
# [25] = porous support impregnated with ChromID CPS3, 1.5 mg/l ciprofloxacin
# [26] = porous support impregnated with MH2, 1.5 mg/l ciprofloxacin
# [27] = all the agar or impregnated media, ciprofloxacin 1.5 g/1 [sic]
smiles,measurement,setting,value
C[C@@H](O)[C@H]1C(=O)N2C(C(=O)O)=C(SCCN=CN)C[C@H]12 [imipenem],MIC,E. coli ATCC 25922 [1],0.12 µg/mL
same,"CFU/ml, ChromID CPS3 with 1 mg/l imipenem",[2]; ChromID CPS3 agar,677 CFU/ml
same,"CFU, ChromID CPS3 with 1 mg/l imipenem",[2]; ChromID CPS3 agar,≥300 colonies
same,"CFU/ml, ChromID CPS3 with 1 mg/l imipenem",[2]; [21],453 CFU/ml
same,"CFU, ChromID CPS3 with 1 mg/l imipenem",[2]; [21],≥300 colonies
same,MIC,[3],2 µg/mL
same,"CFU/ml, ChromID CPS3 with 1 mg/l imipenem","E. coli ATCC 25922 [4]; ChromID CPS3 agar, starting concentration 10^3 CFU/ml",0 CFU/ml
same,"CFU/ml, ChromID CPS3 with 1 mg/l imipenem","E. coli ATCC 25922 [4]; ChromID CPS3 agar, starting concentration 10^5 CFU/ml",0 CFU/ml
same,"CFU/ml, ChromID CPS3 with 1 mg/l imipenem","E. coli ATCC 25922 [4]; porous support according to the invention, starting concentration 10^3 CFU/ml",0 CFU/ml
same,"CFU/ml, ChromID CPS3 with 1 mg/l imipenem","E. coli ATCC 25922 [4]; porous support according to the invention, starting concentration 10^5 CFU/ml",0 CFU/ml
"O=C(O)c1cn(C2CC2)c2cc(N3CCNCC3)c(F)cc2c1=O [ciprofloxacin, Ciprofloxacin]",MIC,[5],0.25 µg/mL
same,MIC,[6],6 to 8 µg/mL
same,MIC,[7],0.38 to 0.5 µg/mL
same,MIC,[8],>32 µg/mL
same,MIC,[9],less than 1.5 mg/l
same,MIC,[9]; listed as Ci,0.032 µg/mL
same,MIC,[10],< 1.5 µg/mL
same,growth on ChromID CPS3 Agar medium + 1.5 mg/l Ci,[11]; [22],−−
same,growth on MH2 Agar medium + 1.5 mg/l Ci,[11]; [23],−−
same,growth on agar media and impregnated porous supports with ciprofloxacin (in words),[11]; [24],do not grow
same,growth on Impregnation of porous support with ChromID CPS3 + 1.5 mg/l Ci,[11]; [25],−−
same,growth on Impregnation of porous support with MH2 + 1.5 mg/l Ci,[11]; [26],−−
same,growth on ChromID CPS3 Agar medium + 1.5 mg/l Ci,[12]; [22],++
same,growth on MH2 Agar medium + 1.5 mg/l Ci,[12]; [23],++
same,growth on agar media and impregnated porous supports with ciprofloxacin (in words),[12]; [27],grow
same,growth on Impregnation of porous support with ChromID CPS3 + 1.5 mg/l Ci,[12]; [25],++
same,growth on Impregnation of porous support with MH2 + 1.5 mg/l Ci,[12]; [26],++
same,growth on ChromID CPS3 Agar medium + 1.5 mg/l Ci,[13]; [22],++
same,growth on MH2 Agar medium + 1.5 mg/l Ci,[13]; [23],++
same,growth on agar media and impregnated porous supports with ciprofloxacin (in words),[13]; [27],grow
same,growth on Impregnation of porous support with ChromID CPS3 + 1.5 mg/l Ci,[13]; [25],++
same,growth on Impregnation of porous support with MH2 + 1.5 mg/l Ci,[13]; [26],++
same,growth on ChromID CPS3 Agar medium + 1.5 mg/l Ci,[14]; [22],−−
same,growth on MH2 Agar medium + 1.5 mg/l Ci,[14]; [23],−−
same,growth on agar media and impregnated porous supports with ciprofloxacin (in words),[14]; [24],do not grow
same,growth on Impregnation of porous support with ChromID CPS3 + 1.5 mg/l Ci,[14]; [25],−−
same,growth on Impregnation of porous support with MH2 + 1.5 mg/l Ci,[14]; [26],−−
same,growth on ChromID CPS3 Agar medium + 1.5 mg/l Ci,[15]; [22],−−
same,growth on MH2 Agar medium + 1.5 mg/l Ci,[15]; [23],−−
same,growth on agar media and impregnated porous supports with ciprofloxacin (in words),[15]; [24],do not grow
same,growth on Impregnation of porous support with ChromID CPS3 + 1.5 mg/l Ci,[15]; [25],−−
same,growth on Impregnation of porous support with MH2 + 1.5 mg/l Ci,[15]; [26],−−
same,growth on ChromID CPS3 Agar medium + 1.5 mg/l Ci,[16]; [22],−−
same,growth on MH2 Agar medium + 1.5 mg/l Ci,[16]; [23],−−
same,growth on agar media and impregnated porous supports with ciprofloxacin (in words),[16]; [24],do not grow
same,growth on Impregnation of porous support with ChromID CPS3 + 1.5 mg/l Ci,[16]; [25],−−
same,growth on Impregnation of porous support with MH2 + 1.5 mg/l Ci,[16]; [26],−−
same,growth on ChromID CPS3 Agar medium + 1.5 mg/l Ci,[17]; [22],++
same,growth on MH2 Agar medium + 1.5 mg/l Ci,[17]; [23],++
same,growth on agar media and impregnated porous supports with ciprofloxacin (in words),[17]; [27],grow
same,growth on Impregnation of porous support with ChromID CPS3 + 1.5 mg/l Ci,[17]; [25],++
same,growth on Impregnation of porous support with MH2 + 1.5 mg/l Ci,[17]; [26],++
same,growth on ChromID CPS3 Agar medium + 1.5 mg/l Ci,[18]; [22],−−
same,growth on MH2 Agar medium + 1.5 mg/l Ci,[18]; [23],−−
same,growth on agar media and impregnated porous supports with ciprofloxacin (in words),[18]; [24],do not grow
same,growth on Impregnation of porous support with ChromID CPS3 + 1.5 mg/l Ci,[18]; [25],−−
same,growth on Impregnation of porous support with MH2 + 1.5 mg/l Ci,[18]; [26],−−
same,MIC,[19],8 to 12 µg/mL
same,MIC,[20],less than 1.5 mg/l
same,MIC,[20]; listed as Ci,0.25 µg/mL
